The test concerns the target 5HT3a receptor expressed in HEK-293T cells (Homo sapiens (Human), UniProt P46098). Put plainly: Inhibition of Ca flux activity of 5HT3 in vitro assay. The test is classed as cell-based. Conditions: calcium flux, 5HT 216 nM, approximate values. On the procedure: Inhibition of Ca Flux Activity of 5HT3 In Vitro Assay
The 5HT3 antagonist activity of the compounds of the invention was determined by measuring the ability of the compounds to inhibit the calcium flux activity of […] receptor expressed in HEK-293T cells. HEK-293T cells were transfected with the 5HT3a expression construct using Xtreme Gene 9 (Roche) in 150 mm tissue culture treated plates and incubated for 24 hours at 37° C. Cells were then split and plated at a density of 60K cells/well in poly-lysine coated, black 96-well plates with clear bottoms (BD BioSciences) and incubated overnight at 37° C. Growth media was removed and cells loaded with 200 uL calcium indicator dye in HBSS containing 20 mM HEPES (Calcium 5 Assay kit, Molecular Devices) and incubated at 37° C. for 1 hour. While cells were incubating, the 10× antagonist and agonist/antagonist addition plates were made. For 10× antagonist plate: half log serial dilutions (final concentrations range from 10^−7 through 10^−10 with the bottom well a negative, no ligand control) were made from test compounds in DMSO at a 1000× concentration and then diluted to 10× in HBSS/20 mM HEPES. For addition plate: 5HT was diluted to 100× in HBSS/20 mM HEPES (final concentration in the assay—216 nM) and 15 uL was added to each well of the addition plate, 15 uL of 10× compound was also added to the addition plate, and finally 120 uL of HBSS/20 mM HEPES (for a total of 150 uL). Cells were then removed from the incubator and equilibrated to room temperature for 10 minutes, then 22.5 uL of 10× test compounds were added in triplicate to the plates and incubated at room temperature for 10 minutes (Tropisetron was used as a positive control in every assay). Test plate and addition plate were loaded into the FlexStation III (Molecular Devices), and using the fluidics, 22.5 uL compound additions were made (at t=˜17 seconds), and fluorescence was measured for 90 seconds, reading every 2.2 seconds. Data sets were analyzed as max minus min using Software Max Pro (Molecular Devices). IC50 curves were generated using non-linear regression in GraphPad Prism.
A general note: Calcium flux is commonly read through the fluorescence of an indicator in the cells.

5HT3a receptor expressed in HEK-293T cells, sequence (P46098 24-478): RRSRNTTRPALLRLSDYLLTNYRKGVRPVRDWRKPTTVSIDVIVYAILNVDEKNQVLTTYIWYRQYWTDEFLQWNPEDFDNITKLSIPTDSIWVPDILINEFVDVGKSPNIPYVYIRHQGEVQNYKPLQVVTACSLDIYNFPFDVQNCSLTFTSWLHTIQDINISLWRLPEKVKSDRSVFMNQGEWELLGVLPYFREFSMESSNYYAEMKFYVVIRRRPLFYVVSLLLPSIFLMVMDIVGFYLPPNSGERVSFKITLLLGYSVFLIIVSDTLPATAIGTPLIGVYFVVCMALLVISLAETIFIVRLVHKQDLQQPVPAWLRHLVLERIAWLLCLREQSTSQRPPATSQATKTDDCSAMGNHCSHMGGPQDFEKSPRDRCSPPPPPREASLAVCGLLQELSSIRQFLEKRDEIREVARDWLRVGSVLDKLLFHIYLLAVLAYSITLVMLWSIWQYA

For orientation: IC50 means the concentration that inhibits the measured activity by half. Take `CC(C)S(=O)(=O)n1cc(C(=O)NC2C[C@H]3COC[C@@H](C2)N3C)c2ccccc21` (some centres unmarked): the IC50 was 0.57 nM. The same measure for `CN1[C@@H]2COC[C@H]1CC(NC(=O)c1cn(CC(F)(F)F)c3ccccc13)C2` (some centres unmarked): 0.68 nM; for `CC(C)S(=O)(=O)n1cc(C(=O)O[C@H]2C[C@H]3COC[C@@H](C2)N3)c2ccccc21`: 1.8 nM; for “5-fluoro-N-((1R,5S,7S)-9-methyl-d3-3-oxa-9-azabicyclo[3.3.1]nonan-7-yl)-1-(2,2,2-trifluoroethyl)-1H-pyrrolo[2,3-b]pyridine-3-carboxamide 2,2,2-trifluoroacetate [Example 18]”: 4.06 nM. As to `O=C(OC1C[C@H]2COC[C@@H](C1)N2)c1cn(CC(F)F)c2ccc(F)cc12` (stereo partly drawn) [Example 31, (1R,5S,7S)-3-oxa-9-azabicyclo[3.3.1]nonan-7-yl 1-(2,2-difluoroethyl)-5-fluoro-1H-indole-3-carboxylate, 2,2,2-trifluoroacetate], the IC50 was 1.29 nM. Regarding `CN1C2COCC1CC(NC(=O)c1cn(CC(F)(F)F)c3ccc(F)cc13)C2` [Example 35, 5-fluoro-N-((1R,5S,7S)-9-methyl-3-oxa-9-azabicyclo[3.3.1]nonan-7-yl)-1-(2,2,2-trifluoroethyl)-1H-indole-3-carboxylate, 2,2,2-trifluoroacetate], the IC50 was 0.54 nM. With `CN1[C@@H]2COC[C@H]1CC(NC(=O)c1cn(S(C)(=O)=O)c3ccc(F)cc13)C2` (stereo partly drawn) [Example 36, 5-fluoro-N-((1R,5S,7S)-9-methyl-3-oxa-9-azabicyclo[3.3.1]nonan-7-yl)-1-(methylsulfonyl)-1H-indole-3-carboxylate, 2,2,2-trifluoroacetate] the figure was 0.5 nM. Regarding `CS(=O)(=O)n1cc(C(=O)OC23CCN(CC2)CC3)c2cc(F)ccc21` [Example 37, quinuclidin-4-yl 5-fluoro-1-(methylsulfonyl)-1H-indole-3-carboxylate, 2,2,2-trifluoroacetate], the IC50 is greater than 1000 nM. For the molecule `O=C(NC1C[C@H]2COC[C@@H](C1)N2)c1cn(CC(F)(F)F)c2ncccc12` (stereo partly drawn) [Example 38, N-((1R,5S,7S)-3-oxa-9-azabicyclo[3.3.1]nonan-7-yl)-1-(2,2,2-trifluoroethyl)-1H-pyrrolo[2,3-b]pyridine-3-carboxamide, 2,2,2-trifluoroacetate], the concentration for half-maximal inhibition (IC50) stood at 1.82 nM. In the case of `O=C(NC1C[C@H]2COC[C@@H](C1)N2)c1cn(CC(F)F)c2ncc(F)cc12` (stereo partly drawn) [Example 39, N-((1R,5S,7S)-3-oxa-9-azabicyclo[3.3.1]nonan-7-yl)-1-(2,2-difluoroethyl)-5-fluoro-1H-pyrrolo[2,3-b]pyridine-3-carboxamide, 2,2,2-trifluoroacetate], the IC50 was found to be 24.1 nM. `CN1C2CCC1CC(OC(=O)c1cn(CC(F)F)c3ccccc13)C2` [Example 40, (1R,3R,5S)-8-methyl-8-azabicyclo[3.2.1]octan-3-yl 1-(2,2-difluoroethyl)-1H-indole-3-carboxylate, 2,2,2-trifluoroacetate]: the IC50 was found to be 0.78 nM. Turning to `CN1[C@@H]2CC[C@H]1CC(OC(=O)c1cn(CC(F)(F)F)c3ncccc13)C2` (stereo partly drawn) [Example 41, (1R,3R,5S)-8-methyl-8-azabicyclo[3.2.1]octan-3-yl 1-(2,2,2-trifluoroethyl)-1H-pyrrolo[2,3-b]pyridine-3-carboxylate, 2,2,2-trifluoroacetate], the IC50 is 5.56 nM. With `CN1[C@@H]2CC[C@H]1CC(OC(=O)c1cn(C3CCOC3)c3ccccc13)C2` (stereo partly drawn) [Example 42, (1R,3R,5S)-8-methyl-8-azabicyclo[3.2.1]octan-3-yl 1-(tetrahydrofuran-3-yl)-1H-indole-3-carboxylate, 2,2,2-trifluoroacetate], the half-inhibitory concentration (IC50) came to 0.94 nM. As for `CN1[C@@H]2CC[C@H]1CC(OC(=O)c1c(Cl)n(CC(F)F)c3ccccc13)C2` (stereo partly drawn) [Example 43, (1R,3R,5S)-8-methyl-8-azabicyclo[3.2.1]octan-3-yl 2-chloro-1-(2,2-difluoroethyl)-1H-indole-3-carboxylate, 2,2,2-trifluoroacetate], the IC50 was found to be 1.02 nM. `CN1[C@@H]2CC[C@H]1CC(OC(=O)c1c(Cl)n(CC(F)(F)F)c3ccccc13)C2` (stereo partly drawn) [Example 44, (1R,3R,5S)-8-methyl-8-azabicyclo[3.2.1]octan-3-yl 2-chloro-1-(2,2,2-trifluoroethyl)-1H-indole-3-carboxylate, 2,2,2-trifluoroacetate]: the IC50 amounted to 1.87 nM.

On to `O=C(OC1C[C@H]2CC[C@@H](C1)N2)c1cn(CC(F)F)c2ccccc12` (stereo partly drawn) [Example 45, (1R,3R,5S)-8-azabicyclo[3.2.1]octan-3-yl 1-(2,2-difluoroethyl)-1H-indole-3-carboxylate, 2,2,2-trifluoroacetate], for which the IC50 is 3.09 nM. As for `CN1[C@@H]2COC[C@H]1CC(OC(=O)c1cn(S(C)(=O)=O)c3ccccc13)C2` (stereo partly drawn) [Example 47, (1R,5S,7S)-9-methyl-3-oxa-9-azabicyclo[3.3.1]nonan-7-yl 1-(methylsulfonyl)-1H-indole-3-carboxylate, 2,2,2-trifluoroacetate], the concentration for half-maximal inhibition (IC50) came out at 0.33 nM. Regarding `CN1[C@@H]2COC[C@H]1C[C@@H](OC(=O)c1cn(CC(F)F)c3ncccc13)C2` [Example 48, (1R,5S,7S)-9-methyl-3-oxa-9-azabicyclo[3.3.1]nonan-7-yl 1-(2,2-difluoroethyl)-1H-pyrrolo[2,3-b]pyridine-3-carboxylate], the IC50 was 0.84 nM. On to `CN1[C@@H]2COC[C@H]1CC(OC(=O)c1cn(CC(F)(F)F)c3ncccc13)C2` (stereo partly drawn) [Example 49, (1R,5S,7S)-9-methyl-3-oxa-9-azabicyclo[3.3.1]nonan-7-yl 1-(2,2,2-trifluoroethyl)-1H-pyrrolo[2,3-b]pyridine-3-carboxylate, 2,2,2-trifluoroacetate], for which the IC50 is 1.82 nM. On to `O=C(OC1C[C@H]2COC[C@@H](C1)N2CCF)c1cn(CC(F)(F)F)c2ccc(F)cc12` (stereo partly drawn) [Example 50, (1R,5S,7S)-9-(2-fluoroethyl)-3-oxa-9-azabicyclo[3.3.1]nonan-7-yl 5-fluoro-1-(2,2,2-trifluoroethyl)-1H-indole-3-carboxylate, 2,2,2-trifluoroacetate], for which the IC50 is 13 nM. The same measure for `CN1[C@@H]2COC[C@H]1CC(NC(=O)c1cn(CC(F)(F)F)c3ncc(F)cc13)C2` (stereo partly drawn) [Example 52, 5-fluoro-N-((1R,5S,7S)-9-methyl-3-oxa-9-azabicyclo[3.3.1]-nonan-7-yl)-1-(2,2,2-trifluoroethyl)-1H-pyrrolo[2,3-b]pyridine-3-carboxamide, 2,2,2-trifluoroacetate]: 1.05 nM; for `CN1[C@@H]2COC[C@H]1C[C@@H](NC(=O)c1cn(C(F)(F)C(F)F)c3ncc(F)cc13)C2` [Example 53, 5-fluoro-N-((1R,5S,7S)-9-methyl-3-oxa-9-azabicyclo[3.3.1]-nonan-7-yl)-1-(1,1,2,2-tetrafluoroethyl)-1H-pyrrolo[2,3-b]pyridine-3-carboxamide, 2,2,2-trifluoroacetate]: 1.05 nM; for `CC(C)S(=O)(=O)n1cc(C(=O)OC2C[C@H]3COC[C@@H](C2)N3)c2cc(F)ccc21` (stereo partly drawn) [Example 54, (1R,5S,7S)-3-oxa-9-azabicyclo[3.3.1]nonan-7-yl 5-fluoro-1-(isopropylsulfonyl)-1H-indole-3-carboxylate, 2,2,2-trifluoroacetate]: 5.61 nM.

(Values after patent publication US9303045B2, “5-HT3 receptor antagonists” (Takeda Pharmaceutical Company Limited, priority 2013, dated 2016).)
